Laboratory results: patent US10787447B2, “Pharmaceutical compounds” (Heptares Therapeutics Limited, priority 2018, dated 2020)

Experiments:
Format in all cases: cell-based
[1] = target: T1, human muscarinic M2 receptor (Homo sapiens, UniProt P08172); experiment: Alphascreen Surefire phospho-ERK1/2 functional assay, M2; details: for % Emax cf. ACh, M2: CHO cells stably expressing human M2; for % Emax cf. ACh, M2 / Emax: Emax relative to ACh; for EC50: pEC50 M2, CHO cells stably expressing human M2, phospho-ERK1/2; for Emax: CHO, read-out: % Emax cf. ACh, M2, CHO cells stably expressing human M2
T1 sequence (P08172 1-466): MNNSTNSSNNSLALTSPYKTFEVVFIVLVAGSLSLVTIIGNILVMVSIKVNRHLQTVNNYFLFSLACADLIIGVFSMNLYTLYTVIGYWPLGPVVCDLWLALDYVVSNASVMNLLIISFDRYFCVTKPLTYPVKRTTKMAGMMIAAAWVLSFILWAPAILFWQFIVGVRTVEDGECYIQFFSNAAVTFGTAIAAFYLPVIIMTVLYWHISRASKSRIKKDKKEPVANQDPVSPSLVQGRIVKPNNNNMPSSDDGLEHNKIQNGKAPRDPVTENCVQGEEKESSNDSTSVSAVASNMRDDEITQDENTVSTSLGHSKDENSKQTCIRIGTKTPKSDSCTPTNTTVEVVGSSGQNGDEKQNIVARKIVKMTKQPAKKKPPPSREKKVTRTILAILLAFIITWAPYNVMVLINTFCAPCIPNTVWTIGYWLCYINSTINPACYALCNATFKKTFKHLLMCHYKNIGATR
Experimental: (§1) ERK1/2 phosphorylation is a downstream consequence of both Gq/11 and Gi/o protein coupled receptor activation, making it highly suitable for the assessment of M1, M3 (Gq/11 coupled) and M2, M4 receptors (Gi/o coupled), rather than using different assay formats for different receptor subtypes. CHO cells stably expressing the human muscarinic M1, M2, M3 or M4 receptor were plated (25K/well) onto 96-well tissue culture plates in MEM-alpha+10% dialysed FBS. Once adhered, cells were serum-starved overnight. Agonist stimulation was performed by the addition of 5 μL agonist to the cells for 5 min (37° C.). Media was removed and 50 μL of lysis buffer added. After 15 min, a 4 μL sample was transferred to 384-well plate and 7 μL of detection mixture added.
(§2) Isomer assignment (Isomer 1, Isomer 2, etc.) is based on the retention time of the compound using the separation technique that was performed in the final purification step. By implication, this could be reversed phase HPLC, chiral HPLC or chiral SFC retention time, and this will vary from compound to compound.

[2] = target: T2, human muscarinic M3 receptor (Homo sapiens, UniProt P20309); experiment: Alphascreen Surefire phospho-ERK1/2 functional assay, M3; details: for Emax: CHO, read-out: % Emax cf. ACh, M3, CHO cells stably expressing human M3; for Emax / % Emax cf. ACh, M3: Emax relative to ACh; for EC50: pEC50 M3, CHO cells stably expressing human M3, phospho-ERK1/2; for % Emax cf. ACh, M3: CHO cells stably expressing human M3
T2 construct: expressed in transfected cells
Experimental: as §1, §2

[3] = target: T3, human muscarinic M1 receptor (Homo sapiens, UniProt P11229); experiment: Alphascreen Surefire phospho-ERK1/2 functional assay, M1; details: for % Emax cf. ACh, M1: CHO cells stably expressing human M1; for EC50: pEC50 M1, CHO cells stably expressing human M1, phospho-ERK1/2
T3 sequence (P11229 1-460): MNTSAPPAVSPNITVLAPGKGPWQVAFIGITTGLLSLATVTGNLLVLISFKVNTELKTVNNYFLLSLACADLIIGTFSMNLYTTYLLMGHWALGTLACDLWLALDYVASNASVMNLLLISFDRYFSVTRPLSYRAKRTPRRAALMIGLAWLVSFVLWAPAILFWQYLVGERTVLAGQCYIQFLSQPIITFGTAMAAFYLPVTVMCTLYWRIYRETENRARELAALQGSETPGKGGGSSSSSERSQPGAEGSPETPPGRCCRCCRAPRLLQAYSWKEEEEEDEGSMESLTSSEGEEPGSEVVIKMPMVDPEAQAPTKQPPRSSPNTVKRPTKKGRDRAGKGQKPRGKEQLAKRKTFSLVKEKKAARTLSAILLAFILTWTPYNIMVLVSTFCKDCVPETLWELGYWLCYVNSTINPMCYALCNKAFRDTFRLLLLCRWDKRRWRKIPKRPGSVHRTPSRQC
How it was run: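 Stably transfected CHO cells, serum-starved overnight, then exposed to agonist for 5 min at 37 °C. Cells lysed and phospho-ERK1/2 measured by AlphaScreen SureFire.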

[4] = target: T4, human muscarinic M4 receptor (Homo sapiens, UniProt P08173); experiment: Alphascreen Surefire phospho-ERK1/2 functional assay, M4; details: for % Emax cf. ACh, M4: CHO cells stably expressing human M4; for % Emax cf. ACh, M4 / Emax: Emax relative to ACh; for EC50: pEC50 M4, CHO cells stably expressing human M4, phospho-ERK1/2; for Emax: CHO, read-out: % Emax cf. ACh, M4, CHO cells stably expressing human M4
T4 sequence (P08173 1-479): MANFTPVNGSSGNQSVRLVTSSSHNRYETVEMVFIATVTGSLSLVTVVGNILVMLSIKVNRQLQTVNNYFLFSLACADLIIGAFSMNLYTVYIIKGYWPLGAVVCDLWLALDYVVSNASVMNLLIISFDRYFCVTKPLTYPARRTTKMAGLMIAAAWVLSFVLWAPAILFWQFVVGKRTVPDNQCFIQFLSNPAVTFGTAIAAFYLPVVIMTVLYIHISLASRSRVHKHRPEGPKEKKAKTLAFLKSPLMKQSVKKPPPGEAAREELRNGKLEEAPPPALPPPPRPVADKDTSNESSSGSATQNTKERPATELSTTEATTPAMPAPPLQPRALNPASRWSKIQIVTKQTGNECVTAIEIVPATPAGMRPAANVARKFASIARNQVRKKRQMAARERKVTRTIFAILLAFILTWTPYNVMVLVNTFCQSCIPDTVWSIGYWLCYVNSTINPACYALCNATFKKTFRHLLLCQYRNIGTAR
How it was run: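 CHO cells stably expressing human M1, M2, M3 or M4 receptor, serum-starved overnight, then stimulated with agonist for 5 min at 37 °C. Cells lysed for 15 min and phospho-ERK1/2 detected in the lysate by AlphaScreen SureFire.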

T2 sequence (P20309 whole entry): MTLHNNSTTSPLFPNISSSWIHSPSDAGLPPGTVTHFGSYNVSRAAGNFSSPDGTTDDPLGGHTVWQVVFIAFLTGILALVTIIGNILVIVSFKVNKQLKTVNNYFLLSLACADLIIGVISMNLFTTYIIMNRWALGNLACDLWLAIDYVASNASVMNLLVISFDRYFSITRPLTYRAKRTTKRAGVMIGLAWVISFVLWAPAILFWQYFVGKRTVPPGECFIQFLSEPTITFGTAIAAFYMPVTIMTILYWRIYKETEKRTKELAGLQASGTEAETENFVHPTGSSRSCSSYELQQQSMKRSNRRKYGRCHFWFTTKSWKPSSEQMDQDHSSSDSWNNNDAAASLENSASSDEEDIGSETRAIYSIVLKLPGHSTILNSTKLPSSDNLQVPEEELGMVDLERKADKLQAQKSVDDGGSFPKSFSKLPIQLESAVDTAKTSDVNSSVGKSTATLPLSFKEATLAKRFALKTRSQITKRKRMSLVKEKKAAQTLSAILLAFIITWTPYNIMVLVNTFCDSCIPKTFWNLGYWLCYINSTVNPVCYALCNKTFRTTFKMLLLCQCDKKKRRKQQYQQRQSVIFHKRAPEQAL

Structure (SMILES)	EC50 [1]	Emax [2]	EC50 [2]	EC50 [3]	EC50 [4]	Emax [1]	also measured
CCOC(=O)N1C2COCC1CC(N1CCC(N(CC3(C)CCC3)C(C)=O)CC1)C2 (single isomer, unassigned) [Example 6-4 Isomer 2, Ethyl 7-(4-{acetyl[(1-methylcyclobutyl)methyl]amino}piperidin-1-yl)-3-oxa-9-azabicyclo[3.3.1]nonane-9-carboxylate]	> 20000 nM	19%	> 20000 nM	33.9 nM	204 nM		% Emax cf. ACh, M2 ([1]; listed as 6-4 Isomer 2): 15%; % Emax cf. ACh, M1 ([3]; Emax relative to ACh, listed as 6-4 Isomer 2): 72%; % Emax cf. ACh, M4 ([4]; listed as 6-4 Isomer 2): 38%
CCOC(=O)N1C2COCC1CC(N1CCC(N3CCCCC3=O)CC1)C2 (single isomer, unassigned) [Example 6-6 Isomer 1, Ethyl 7-(2-oxo-1,4′-bipiperidin-1′-yl)-3-oxa-9-azabicyclo[3.3.1]nonane-9-carboxylate]	339 nM		> 20000 nM	251 nM	19.1 nM		% Emax cf. ACh, M2 ([1]; listed as 6-6 Isomer 1): 60%; % Emax cf. ACh, M3 ([2]; listed as 6-6 Isomer 1): 7%; % Emax cf. ACh, M1 ([3]; Emax relative to ACh, listed as 6-6 Isomer 1): 103%; % Emax cf. ACh, M4 ([4]; listed as 6-6 Isomer 1): 109%
CCOC(=O)N1C2COCC1CC(N1CCC(N3CCCCCC3=O)CC1)C2 (single isomer, unassigned) [Example 6-7 Isomer 2, Ethyl 7-[4-(2-oxoazepan-1-yl)piperidin-1-yl]-3-oxa-9-azabicyclo[3.3.1]nonane-9-carboxylate]	> 20000 nM			2190 nM	174 nM		% Emax cf. ACh, M2 ([1]; listed as 6-7 Isomer 2): 5%; % Emax cf. ACh, M3 ([2]; listed as 6-7 Isomer 2): 2%; % Emax cf. ACh, M1 ([3]; Emax relative to ACh, listed as 6-7 Isomer 2): 41%; % Emax cf. ACh, M4 ([4]; listed as 6-7 Isomer 2): 52%
CCOC(=O)N1C2COCC1CC(N1CCC(c3cccnc3OC)CC1)C2 (single isomer, unassigned) [Example 2-2 Isomer 1, Ethyl 7-[4-(2-methoxypyridin-3-yl)piperidin-1-yl]-3-oxa-9-azabicyclo[3.3.1]nonane-9-carboxylate]	> 20000 nM	4%	> 20000 nM	> 20000 nM	36.3 nM	3%	% Emax cf. ACh, M1 ([3]; Emax relative to ACh, listed as 2-2 Isomer 1): 63%; % Emax cf. ACh, M4 ([4]; listed as 2-2 Isomer 1): 61%
CCOC(=O)N1C2COCC1CC(N1CCC(C(=O)NCC3CCC3)CC1)C2 (single isomer, unassigned) [Example 7-3 Isomer 1, Ethyl 7-{4-[(cyclobutylmethyl)carbamoyl]piperidin-1-yl}-3-oxa-9-azabicyclo[3.3.1]nonane-9-carboxylate]	1480 nM	57%	> 20000 nM	35.5 nM	275 nM	62%	Emax ([3]; CHO, read-out: % Emax cf. ACh, M1, CHO cells stably expressing human M1, Emax relative to ACh): 100%; Emax [4]: 97%
CCOC(=O)N1C2COCC1CC(N1CCC(n3cc(C)cn3)CC1)C2 (single isomer, unassigned) [Example 1-3 Isomer 1, Ethyl 7-[4-(4-methyl-1H-pyrazol-1-yl)piperidin-1-yl]-3-oxa-9-azabicyclo[3.3.1]nonane-9-carboxylate]	282 nM		2510 nM	55 nM	7.24 nM		% Emax cf. ACh, M2 ([1]; listed as 1-3 Isomer 1): 112%; % Emax cf. ACh, M3 ([2]; listed as 1-3 Isomer 1): 40%; % Emax cf. ACh, M1 ([3]; Emax relative to ACh, listed as 1-3 Isomer 1): 124%; Emax [4]: 99%
CCOC(=O)N1C2COCC1CC(N1CCC3(CC1)CNC(=O)C3)C2 (single isomer, unassigned) [Example 5-2 Isomer 2, Ethyl 7-(3-oxo-2,8-diazaspiro[4.5]dec-8-yl)-3-oxa-9-azabicyclo[3.3.1]nonane-9-carboxylate]	> 20000 nM	5%	> 20000 nM	43.7 nM	> 20000 nM	8%	% Emax cf. ACh, M1 ([3]; Emax relative to ACh, listed as 5-2 Isomer 2): 61%; % Emax cf. ACh, M4 [4]: 18%
